“And” between values parts separate entries of the source, which are not always exact repeats. Equal entries are not always repeated.
Experiments:
[1] = tested on: human colon carcinoma cell line HCT 116; test: In vitro cytotoxicity assay (XTT); type: cell-based
Method: Cytotoxicity for the pure compound was assessed in several HCT116 cell lines by XTT (2,3-bis(2-methoxy-4-nitro-5-sulfophenyl)-5-[(phenylamino)carbonyl]-2H-tetrazolium hydroxide assay (Scudiero, 1988). Cells were seeded at 4000 cells/well in 96 well microtiter plates. 24 hrs later drugs were added and serial diluted. The cells were incubated at 37° C. for 72 hrs at which time the tetrazolium dye, XTT, was added. A dehydrogenase enzyme in live cells reduces the XTT to a form that absorbs light at 450 nm and which can be quantitated spectrophotometrically. The greater the absorbance the greater the number of live cells. The results are expressed as an IC50 which is the drug concentration required to inhibit cell proliferation (i.e. absorbance at 450 nm) to 50% of that of untreated control cells.

P388 mouse leukemia [2] = test: In vivo antitumor activity, i.p. implanted P388 mouse leukemia
Method: (§1) For in vivo evaluation of antitumor activity 1×10^6 P388 mouse leukemia cells were implanted in the intraperitoneal (i.p.) cavity or injected intravenously (i.v.) into (BALB/c ×DBA/2)F1 (CDF1) or (C57/BL6×DBA/2)F1 (BDF1) mice (Roseet al., 1983). Compound (1) was dissolved in DMSO and diluted with saline to the desired concentrations. Injection of Compound (1) was by the i.p. or i.v. route beginning on the first day after tumor implantation and consecutively every day for five treatments (qldX5:1). Increases in lifespan were reflected by the median survival time of treated (T) versus control (C) groups for which a % T/C was calculated. When antitumor activity was evaluated in M109 mouse lung .tumors, 0.2 ml of a 2.0% brei was implanted subcutaneously (s.c.) in CDF1 mice (Rose, 1981). The treatment schedule was one injection per day for days 4-8 after tumor implantation. Results are expressed as % T/C. Tumor growth inhibition was determined by calculating the relative median times for T and C mice to reach a 1 g size. Tumor weights were interchangeable with tumor size on the basis of 1 mm^3 =1 mg. The activity criterion for tumor growth inhibition (T-C) was approximately equal to a T-C of 4 days. Depending on the tumor volume doubling time for the M109 tumors in control mice, this amount of delay in tumor growth is consistent with about one log of cell kill. For both P388 and M109 tumor models, a T/C of […] was considered an active result.
(§2) Initial testing was done versus i.p. implanted P388 mouse leukemia. An optimal dose of 0.03 mg/kg/inj given i.p. produced a 50% increase in lifespan (150% T/C). In addition, Compound (1) was evaluated in two distal site models; i.v. implanted P388 or s.c. implanted M109 in which Compound (1) was given by i.v. injection.

[3] = In vivo antitumor activity, i.v. implanted P388 mouse leukemia (distal site); details: mouse, in vivo, iv; P388 i.v.; qd 1-5, i.v.; read-out: maximum tolerated dose (MTD)
Method: as §1, §2

P388 mouse leukemia [4] = test: as above
Method: as §1, §2

M109 mouse lung tumors = test: In vivo antitumor activity, s.c. implanted M109 mouse lung tumor (distal site)
Method: as §1, §2

C=C1C(O)CC(=O)C(C)C=C(C)CC(O)C2(O)OC(CCC2O)CC2CCC(O2)C(CCCC)OC(=O)C(C)C(O)C2OC12 (stereo not shown) [Compound (1), caribenolide I]
cytotoxicity in vitro (in words) [1]: potent cytotoxicity
IC50 ([1]; human colon carcinoma HCT 116, XTT, 72 hrs): 1.6 nM
optimal dose (OD) (P388 mouse leukemia [2]; P388 i.p., qd 1-5, i.p.): 0.03 mg/kg/inj and 0.030 mg/kg/inj
MST, % T/C (median survival time treated vs control) (P388 mouse leukemia [2]; ip, 0.03 mg/kg): 150%
increase in lifespan (P388 mouse leukemia [2]; ip, 0.03 mg/kg): 50%
MTD [3]: 0.064 mg/kg
increase in life span (in words) (P388 mouse leukemia [4]; P388 i.v., doses up to MTD 0.064 mg/kg/inj, i.v.): did not increase the life span
MST, % T/C (median survival time treated vs control) (P388 mouse leukemia [4]; iv, 0.064 mg/kg): 107%
MST, % T/C (median survival time treated vs control) (M109 mouse lung tumors; 0.060/0.120 mg/kg/inj, qd 4-8, i.v.): 128%
T-C (tumor growth delay) (M109 mouse lung tumors; 0.060/0.120 mg/kg/inj, qd 4-8, i.v., time to 1 g size): 1.3 days
distal site activity (in words) (M109 mouse lung tumors; i.v. dosing): no meaningful distal site activity
OD, first printed value (M109 mouse lung tumors; qd 4-8, i.v.): 0.060 mg/kg/inj
OD, second printed value (M109 mouse lung tumors; qd 4-8, i.v.): 0.120 mg/kg/inj
